From patent US20080220416A1, “Compositions for Inhibiting Cell Growth and Inducing Apoptosis in Cancer Cells and Methods of Use Thereof” (THE BOARD OF TRUSTEES OF THE UNIVERSITY OF ILLINOI, priority 2004, published 2008) come the findings set out here.

Where two headings read alike, the source gives them in different places.

Experiment [1] deals with SK-MeI-28 melanoma cells. In words: Dosing study versus chemotherapeutic agents, killing of SK-MeI-28 melanoma cells. The experiment is classed as cell-based, human. As to conditions: SK-MeI-28, mutated p53. As to the method: (§1) An initial dosing study comparing z-Leu-Leu-Nle-CHO against three different chemotherapeutic agents (i.e., adriamycin, etoposide, and cisplatin) was performed to evaluate the relative effectiveness of z-Leu-Leu-Nle-CHO in killing melanoma cells. In agreement with a previous report by Soengas, M. S. et al., 2001, Nature 409.207-211, SK-MeI-28 cells, carrying a mutated p53, were relatively resistant to killing by adriamycin, as well as to killing by other chemotherapeutic agents. For SK-MeI-28 melanoma cells, the maximal apoptotic response for adriamycin, etoposide, cisplatin, and z-Leu-Leu-Nle-CHO was 12.0%, 2.6%, 4.0%, and 29.4%, respectively. For RJ002L melanoma cells, the maximal apoptotic response for adriamycin, etoposide, cisplatin, and z-Leu-Leu-Nle-CHO was 23.9%, 12.7%, 3.4%, and 45.7%, respectively.

Experiment [2] deals with RJ002L melanoma cells. In words: Dosing study versus chemotherapeutic agents, killing of RJ002L melanoma cells. In kind it is cell-based, human. How it is done:
as §1

The subject of experiment [3] is NOXA. In words: Western blot of pro-survival and pro-apoptotic proteins in melanoma cells. In kind it is cell-based, human. As to conditions: several melanoma cell lines, similar time points; data not shown. As to the method: To assess the effect of z-Leu-Leu-Nle-CHO on pro-apoptotic proteins, RJ002L pulmonary metastases melanoma cells were grown in RPMI supplemented with 10% FBS. Highly proliferating cells (i.e., cells that had reached approximately 30% confluency) were exposed to z-Leu-Leu-Nle-CHO by replenishing the culture media with media containing z-Leu-Leu-Nle-CHO (10 μM) (experimental group) or media without z-Leu-Leu-Nle-CHO (control group) and the cells were incubated for a specified period of time prior to harvesting the cells for further analysis.
Western blot analyses following z-Leu-Leu-Nle-CHO and control treatment of RJ002L melanoma cells were performed to determine the effect of z-Leu-Leu-Nle-CHO on pro-survival and pro-apoptotic proteins. Whole cell extracts were prepared and analyzed as described by Denning, M. F. et al., 1998, J Biol Chem 273: 29995-30002, 1998. The enriched mitochondria pellet and mitochondria-free cytosol of melanoma cells were prepared with the APO ALERT cell fraction kit (Clontech Laboratories, Inc. Palo Alto, Calif.) according to the manufacturer's instructions. For Western blot analysis, equal amounts of protein extracted from each sample (20-30 μg) were loaded into pre-cast 7% NuPAGE Tris-acetate gels or 4-12% NuPAGE Bis-tris gels (Invitrogen). Proteins were separated by SDS-PAGE and transferred to polyvinylidene difluoride membranes (Bio-Rad, Hercules, Calif.) using Invitrogen's buffering system. The indicated primary antibodies were incubated for indicated period of time, washed, and visualized by incubation with horseradish peroxidase-conjugated secondary antibodies and chemiluminescent reagents (Roche Diagnostics Corporation, Indianapolis, Ind.). Antibodies used were as follows: From Santa Cruz Biotechnology: Bcl-2 (SC-7382), BCl-xL (SC-634), Mcl-1 (SC-819), survivin (SC-10811), Bax (SC-493), Bak (SC-832), Bim (SC-11425), PUMA (SC-19187), p53 (SC-126), and GADD45 (SC-796); From Cell Signaling: Bid (#2002), and cleaved caspase 9 (9501); NOXA (OP180—Oncogene Research Products), Apaf-1 (559683-BD Bioscience), Smac/Diablo (IMG-248-Imgenex), cytochrome C (part of kit—Apo Alert™ cell fraction kit—Clontech Laboratories, Inc.—Palo Alto, Calif.), PARP (Pharmingen, San Diego, Calif.) and β-actin (Sigma Chemical Co., St. Louis, Mo.). Secondary antibodies anti-goat, anti-mouse, anti-rabbit and anti-rat (IgG-HRP) were purchased from Vector Laboratories (Burlingame, Calif.), Santa Cruz Biotechnology and Amersham Biosciences.
To determine if p53 status influences induction of NOXA, NOXA induction in z-Leu-Leu-Nle-CHO-treated melanoma cell lines (10 μM) containing p53 mutations (i.e. C8161, SK-MeI-28, MUM2B) were examined using Western blot analysis as described above and compared to that of Western blot results from z-Leu-Leu-Nle-CHO-treated melanoma cell lines (10 μM) having wild-type p53 (RJ002L, SK-MeI-100). […] In contrast, C8161, which carries a R196Stop mutation in only one allele, has p53 expression similar to that observed in wild-type cell lines. […] NOXA induction occurred earlier in SK-MeI-100 cells than in the other tested cell lines (FIG. 2C). Apaf-1 levels were not increased in response to z-Leu-Leu-Nle-CHO (data not shown).

For experiment [4], the system named is CaSki human cervical cancer cells. In words: Cell growth inhibition assay in CaSki cervical cancer cells (crystal violet). In kind it is cell-based. To be noted: 48 hrs, read-out: IC50 of cisplatin. How it is done:
The cell growth inhibition assay was performed in a 96-well plate format. Inhibition was assessed by monitoring the protein content in each well using the crystal violet staining method as described by Skehan et al., 1990, J Natl Cancer Inst 82:1107-1112 and Prochaska et al., 1988, Anal Biochem 169:328-336. Briefly, cells were plated at a density of 2×10^4 cells/ml in 200 μl of DMEM supplemented with 10% FBS. The cells were transfected with siRNAs ([…] siRNA oligos/well) using Oligofectamine Transfection Reagents (InVitrogen) according to manufacturer's instructions. Twenty-four hours post-transfection, the media was decanted, 190 μl of fresh media was added to each well, and 10 μl of cisplatin (4 mM) dissolved in 10% DMSO was added to the wells as a series 2-fold dilutions (final concentration of cisplatin in the wells ranged from 0.5-200 μM). The cells were incubated with cisplatin for 48 hrs, the media was decanted, and the cells were submerged with 200 μl of 0.2% crystal violet in 2% ethanol for 10 min. The plates were rinsed for 2 min with tap water. The bound dye was solublized by incubation at 37° C. for 1 h with 200 μl of 0.5% sodium dedecyl sulfate in 50% ethanol. The plates were then scanned with an ELISA reader at 562 nm. The percentage cell growth inhibition mediated by cisplatin was calculated as: % inhibition=[1-(OD of cisplatin-treated cells/OD DMSO-treated control cells)]×100/100.
CaSki human cervical cancer cells treated for 48 hrs with z-Leu-Leu-Nle-CHO alone were tested for cell growth inhibition. The cell growth inhibition assay was performed in a 96-well plate format. Inhibition was assessed by monitoring the protein content in each well using the crystal violet staining method Skehan, P. et al., 1990, J Natl Cancer Inst 82:1107-1112. Briefly, cells were plated at a density of 2×10^4 cells/ml in 200 μl of DMEM supplemented with 10% FBS. After pre-incubation period of 24 h, the media was decanted, 190 μl of fresh media was added to each well, and 10 μl (150 μM) of z-Leu-Leu-Nle-CHO dissolved in 10% DMSO was added to the wells as a series 2-fold dilutions (final concentration of cisplatin in the wells ranged from 0.05-7.5 μM). The cells were incubated with z-Leu-Leu-Nle-CHO for 48 hrs, the media was decanted, and the cells were submerged with 200 μl of 0.2% crystal violet in 2% ethanol for 10 min. The plates were rinsed for 2 min with tap water. The bound dye was solublized by incubation at 37° C. for 1 h with 200 μl of 0.5% sodium dedecyl sulfate in 50% ethanol. The plates were then scanned with an ELISA reader at 562 nm. The percentage cell growth inhibition mediated by test agents was calculated as: % inhibition=[1-(OD of z-Leu-Leu-Nle-CHO-treated cells/OD DMSO-treated control cells)]×100/100.
To determine whether z-Leu-Leu-Nle-CHO treatment potentiates the effect of cisplatin on human […] cancer cells, the CaSki cells were treated for 48 h with 0.1-0.8 μM z-Leu-Leu-Nle-CHO and various concentrations of cisplatin (2-fold dilutions of a cisplatin solution to produce final concentrations of 1.6-200 μM cisplatin). Following the z-Leu-Leu-Nle-CHO and cisplatin treatment, the cells were tested for growth inhibition as described above.
Isobologram analysis was performed by measuring the IC50 values of cisplatin in the presence of various concentrations of z-Leu-Leu-Nle-CHO. These IC50 values were plotted with SigmaPlot, and a straight line was traced between the IC50 values of cells treated with either cisplatin or z-Leu-Leu-Nle-CHO alone.

For `COc1cccc2c1C(=O)c1c(O)c3c(c(O)c1C2=O)C[C@@](O)(C(=O)CO)C[C@@H]3O[C@H]1C[C@H](N)[C@H](O)[C@H](C)O1` [adriamycin], the maximal apoptotic response in experiment [1] was found to be 12.0%; in experiment [2] it was 23.9%. Besides, the “NOXA induction by DNA damaging agents” value in experiment [3] is “did not induce NOXA”.

As to `N.N.[Cl][Pt][Cl]` [cisplatin], the maximal apoptotic response in experiment [1] came out at 4.0%; in experiment [2], 3.4%. Besides, in experiment [3], the “NOXA induction by DNA damaging agents” value is given as “did not induce NOXA”. In addition, the concentration for half-maximal inhibition (IC50) in experiment [4] (in combination with Notch-1 siRNA) came out at 0.46 µM; in experiment [4] (without Notch-1 siRNA) it was 27.3 µM.

On to `COc1cc([C@@H]2c3cc4c(cc3[C@@H](O[C@@H]3O[C@@H]5CO[C@@H](C)O[C@H]5[C@H](O)[C@H]3O)[C@H]3COC(=O)[C@H]23)OCO4)cc(OC)c1O` [etoposide], for which the maximal apoptotic response in experiment [1] was 2.6%; in experiment [2], 12.7%. The “NOXA induction by DNA damaging agents” value in experiment [3] was “did not induce NOXA”.

For orientation: IC50 means the midpoint of a concentration-inhibition curve.
